Test results taken from patent publication US9556165B2 (priority 2012, dated 2017).
≈ marks a conversion by molar mass, not a printed value. Read-outs that look alike come from different tables or passages of the source.

Legend:
Type in all cases: cell-based
[1] = test system: Bacteria; experiment: MIC determination in combination with β-lactamase inhibitors (constant 4 μg/mL)
[2] = test system: E. coli ATCC25922; experiment: MIC determination, broth microdilution (CLSI); conditions: for MIC: Escherichia coli, ATCC25922, strain 1
[3] = test system: E. coli J62; experiment: MIC determination, broth microdilution (CLSI); conditions: broth microdilution; for MIC: Escherichia coli, J62, strain 17, read-out: MIC strain 17 (E. coli J62)
[4] = test system: M. morganii 126/3048; experiment: MIC determination, broth microdilution (CLSI); conditions: for MIC: Morganella morganii, 126/3048, strain 5
[5] = test system: C. perfringens DSM756; experiment: microbe, parasite or virus in culture; conditions: broth microdilution; for MIC: Clostridium perfringens, DSM756, read-out: MIC strain 16 (C. perfringens DSM756), strain 16
[6] = test system: S. pneumoniae 113; experiment: MIC determination, broth microdilution (CLSI); conditions: broth microdilution; for MIC: Streptococcus pneumoniae, 113, strain 13, read-out: MIC strain 13 (S. pneumoniae 113)
[7] = test system: C. freundii K21/3034; experiment: MIC determination, broth microdilution (CLSI); conditions: for MIC: Citrobacter freundii, K21/3034, strain 4
[8] = test system: K. pneumoniae 60; experiment: MIC determination, broth microdilution (CLSI); conditions: for MIC: Klebsiella pneumoniae, 60, strain 2
[9] = test system: P. aeruginosa 2297-con (AmpC derepressed); experiment: MIC determination, broth microdilution (CLSI); conditions: for MIC: Pseudomonas aeruginosa, read-out: strain 8 MIC, strain 8
[10] = test system: A. baumannii ATCC15308; experiment: MIC determination, broth microdilution (CLSI); conditions: for MIC: Acinetobacter baumannii, ATCC15308, strain 9
[11] = test system: P. aeruginosa PAO1; experiment: MIC determination, broth microdilution (CLSI); conditions: for MIC: Pseudomonas aeruginosa, PAO1, strain 6
[12] = test system: P. aeruginosa 2297 (AmpC wt); experiment: MIC determination, broth microdilution (CLSI); conditions: for MIC: Pseudomonas aeruginosa, strain 7
[13] = test system: H. influenzae ATCC 49247; experiment: MIC determination, broth microdilution (CLSI); conditions: broth microdilution; for MIC: Haemophilus influenzae, ATCC49247, strain 12, read-out: MIC strain 12 (H. influenzae ATCC 49247)
[14] = test system: B. fragilis 6688; experiment: MIC determination, broth microdilution (CLSI); conditions: broth microdilution; for MIC: Bacteroides fragilis, 6688, strain 15, read-out: MIC strain 15 (B. fragilis 6688)
[15] = test system: S. aureus 133; experiment: MIC determination, broth microdilution (CLSI)
[16] = test system: E. coli J62-TEM-3; experiment: MIC determination, broth microdilution (CLSI); conditions: broth microdilution; for MIC: Escherichia coli, J62TEM3, read-out: MIC strain 18 (E. coli J62-TEM-3), strain 18
[17] = test system: E. cloacae 34654; experiment: MIC determination, broth microdilution (CLSI); conditions: for MIC: Enterobacter cloacae, 34654, strain 3
[18] = test system: S. maltophilia ICB7569; experiment: MIC determination, broth microdilution (CLSI); conditions: for MIC: Stenotrophomonas maltophilia, ICB7569, strain 10
[19] = Staphylococcus aureus, 133, strain 11, read-out: strain 11 MIC
[20] = Staphylococcus aureus, 133, strain 14, broth microdilution, read-out: MIC strain 14 (S. aureus 133)

Row | SMILES | MIC strain 19 (E. coli J62-TEM-3 + 4 μg/mL clavulanic acid) [1] | MIC strain 20 (E. coli J62-TEM-3 + 4 μg/mL sulbactam) [1] | MIC strain 21 (E. coli J62-TEM-3 + 4 μg/mL tazobactam) [1] | strain 1 MIC [2] | MIC strain 17 (E. coli J62) [3] | strain 5 MIC [4] | MIC [5] | strain 4 MIC [7] | strain 2 MIC [8] | strain 9 MIC [10] | MIC [14] | MIC [15, 19] | MIC [16] | strain 3 MIC [17] | MIC [6] | MIC [13] | MIC [3] | MIC [4] | MIC [7] | MIC [18] | further results
1 | CC1(C)[C@H](NC(=O)/C(=N\OC(COc2ccc(C(=N)NCCN)cc2)C(=O)O)c2csc(N)n2)C(=O)N1OS(=O)(=O)O (mixture of isomers) [Example 44A, (2R and 2S)-3-{4-[N-(2-Aminoethyl)carbamimidoyl]phenoxy}-2-({[(1Z)-1-(2-amino-1,3-thiazol-4-yl)-2-{[(3S)-2,2-dimethyl-4-oxo-1-(sulfooxy)azetidin-3-yl]amino}-2-oxoethylidene]amino}oxy)propanoic acid] | ≦0.063 mg/L | ≦0.063 mg/L | ≦0.063 mg/L | ≦0.063 mg/L | 0.125 µg/mL | 0.125 µg/mL | 1 µg/mL | ≦0.063 mg/L | ≦0.063 mg/L | 2 µg/mL | 8 µg/mL | ≤ 0.063 µg/mL | 2 µg/mL | 0.125 µg/mL |  |  |  |  |  |  | MIC strain 13 (S. pneumoniae 113) [6]: 0.5 µg/mL; strain 8 MIC [9]: 1 µg/mL; strain 6 MIC [11]: 1 µg/mL; strain 7 MIC [12]: 2 µg/mL; MIC strain 12 (H. influenzae ATCC 49247) [13]: ≦0.063 mg/L; MIC [15, 20]: 32 µg/mL; strain 10 MIC [18]: 2 µg/mL
2 | CC1(C)[C@H](NC(=O)/C(=N\OC(CO)COc2ccc(C(=N)N)cc2)c2csc(N)n2)C(=O)N1OS(=O)(=O)O (mixture of isomers) [Example 45B, (2Z)-2-(2-Amino-1,3-thiazol-4-yl)-2-({[(2R and 2S)-1-(4-carbamimidoylphenoxy)-3-hydroxypropan-2-yl]oxy}imino)-N-[(3S)-2,2-dimethyl-4-oxo-1-(sulfooxy)azetidin-3-yl]ethanamide] | 2 µg/mL | 4 µg/mL | 4 µg/mL | 2 µg/mL | 4 µg/mL | 4 µg/mL | 2 µg/mL | 1 µg/mL | 2 µg/mL | 4 µg/mL | 4 µg/mL | ≤ 0.063 µg/mL |  | 4 µg/mL | 0.125 µg/mL | 0.5 µg/mL |  |  |  |  | strain 8 MIC [9]: 32 µg/mL; strain 6 MIC [11]: 16 µg/mL; strain 7 MIC [12]: 32 µg/mL; MIC strain 14 (S. aureus 133) ([15]; broth microdilution): 16 µg/mL; MIC strain 18 (E. coli J62-TEM-3) [16]: 16 µg/mL; strain 10 MIC [18]: 32 µg/mL
3 | CC1(C)[C@H](NC(=O)/C(=N\OC(COc2ccc(C(=N)N)cc2)CC(=O)O)c2csc(N)n2)C(=O)N1OS(=O)(=O)O (mixture of isomers) [Example 46, 3-({[(1Z)-1-(2-Amino-1,3-thiazol-4-yl)-2-{[(3S)-2,2-dimethyl-4-oxo-1-(sulfooxy)azetidin-3-yl]amino}-2-oxoethylidene]amino}oxy)-4-(4-carbamimidoylphenoxy)butanoic acid] | 1 µg/mL | 1 µg/mL | 1 µg/mL |  |  |  | 4 µg/mL |  |  |  | 32 µg/mL |  | 16 µg/mL |  | 1 µg/mL | 0.25 µg/mL | 2 µg/mL | 1 µg/mL | 1 µg/mL | 8 µg/mL | MIC [2]: 2 µg/mL; MIC [8]: 1 µg/mL; MIC [9]: 32 µg/mL; MIC [10]: 16 µg/mL; MIC [11]: 8 µg/mL; MIC [12]: 32 µg/mL; MIC [17]: 2 µg/mL
4 | CC1(C)[C@H](NC(=O)/C(=N\OC(CCO)COc2ccc(C(=N)N)cc2)c2csc(N)n2)C(=O)N1OS(=O)(=O)O (single isomer, unassigned) [Example 81A] | 8 µg/mL | 8 µg/mL | 8 µg/mL |  |  |  | 8 µg/mL (≈ 13.7 µM) |  |  |  | 16 µg/mL (≈ 27.3 µM) |  |  | 16 µg/mL | 0.25 µg/mL (≈ 0.427 µM) | 2 µg/mL (≈ 3.42 µM) | 8 µg/mL (≈ 13.7 µM) | 8 µg/mL (≈ 13.7 µM) | 4 µg/mL (≈ 6.83 µM) | 16 µg/mL (≈ 27.3 µM) | MIC [2]: 4 µg/mL (≈ 6.83 µM); MIC [8]: 8 µg/mL (≈ 13.7 µM); MIC [10]: 8 µg/mL (≈ 13.7 µM); MIC [15, 20]: 32 µg/mL (≈ 54.6 µM); MIC strain 18 (E. coli J62-TEM-3) [16]: 32 µg/mL (≈ 54.6 µM)
5 | CC1(C)[C@H](NC(=O)/C(=N\OC(CCO)COc2ccc(C(=N)N)cc2)c2csc(N)n2)C(=O)N1OS(=O)(=O)O (single isomer, unassigned) [Example 81B] | 4 µg/mL | 4 µg/mL | 4 µg/mL | 2 µg/mL | 4 µg/mL (≈ 6.83 µM) | 4 µg/mL |  | 2 µg/mL | 4 µg/mL | 8 µg/mL |  |  |  | 4 µg/mL |  |  |  |  |  |  | MIC strain 16 (C. perfringens DSM756) ([5]; strain 16): 4 µg/mL (≈ 6.83 µM); MIC strain 13 (S. pneumoniae 113) [6]: 0.125 µg/mL (≈ 0.213 µM); MIC strain 12 (H. influenzae ATCC 49247) [13]: 2 µg/mL (≈ 3.42 µM); MIC strain 15 (B. fragilis 6688) ([14]; strain 15): 16 µg/mL (≈ 27.3 µM); MIC strain 14 (S. aureus 133) ([15]; broth microdilution): 32 µg/mL (≈ 54.6 µM); MIC strain 18 (E. coli J62-TEM-3) [16]: 4 µg/mL (≈ 6.83 µM); strain 10 MIC [18]: 16 µg/mL
6 | CC1(C)[C@H](NC(=O)/C(=N\OCCOc2ccc(C(=N)N)cc2)c2csc(N)n2)C(=O)N1OCS(=O)(=O)O [Example 90] | 0.5 µg/mL | 0.5 µg/mL | 1 µg/mL |  |  |  | 16 µg/mL (≈ 28.8 µM) |  |  |  | 4 µg/mL (≈ 7.2 µM) | 0.5 µg/mL (≈ 0.9 µM) | 0.5 µg/mL (≈ 0.9 µM) |  | 0.5 µg/mL (≈ 0.9 µM) | 0.5 µg/mL (≈ 0.9 µM) | 1 µg/mL (≈ 1.8 µM) | 0.5 µg/mL (≈ 0.9 µM) | 0.25 µg/mL (≈ 0.45 µM) | 4 µg/mL (≈ 7.2 µM) | MIC [2]: 0.5 µg/mL (≈ 0.9 µM); MIC [9]: 32 µg/mL (≈ 57.6 µM); MIC [11]: 32 µg/mL (≈ 57.6 µM); MIC [12]: 32 µg/mL (≈ 57.6 µM); MIC [17]: 1 µg/mL (≈ 1.8 µM)
7 | CC1(C)[C@H](NC(=O)/C(=N\O[C@@H](COc2ccc(C(=N)NCc3ncc[nH]3)cc2)C(=O)O)c2csc(N)n2)C(=O)N1OS(=O)(=O)O [Example 104, (2S)-2-({[(1Z)-1-(2-Amino-1,3-thiazol-4-yl)-2-{[(3S)-2,2-dimethyl-4-oxo-1-(sulfooxy)azetidin-3-yl]amino}-2-oxoethylidene]amino}oxy)-3-{4-[N-(1H-imidazol-2-ylmeth-yl)carbamimidoyl]phenoxy}propanoic acid] | 1 µg/mL | 1 µg/mL | 1 µg/mL | 1 µg/mL |  |  | 8 µg/mL (≈ 12 µM) |  |  |  |  | ≤ 0.063 µg/mL | 32 µg/mL (≈ 48.1 µM) |  | 1 µg/mL (≈ 1.5 µM) | ≤ 0.063 µg/mL | 1 µg/mL (≈ 1.5 µM) | 0.5 µg/mL (≈ 0.751 µM) | 1 µg/mL (≈ 1.5 µM) | 16 µg/mL (≈ 24 µM) | MIC [8]: 1 µg/mL (≈ 1.5 µM); MIC [11]: 16 µg/mL (≈ 24 µM); MIC [17]: 1 µg/mL (≈ 1.5 µM)
